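Compound exposure: 48 hours, 5 concentrations, 96-well plates. GI50 marks 50% less growth. TGI: total growth inhibition.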
What was measured:
Test in all cases: NCI tumour cell line growth inhibition, 48 h; in the data active = GI50 below about 0.43 µM; inactive = the rest
HS 578T breast = system: HS 578T breast
M14 melanoma = system: M14 melanoma
EKVX NSCLC = system: EKVX NSCLC
PC-3 prostate = system: PC-3 prostate
HOP-92 NSCLC = system: HOP-92 NSCLC
HT29 colon = system: HT29 colon
OVCAR-3 ovarian = system: OVCAR-3 ovarian
HCT-15 colon = system: HCT-15 colon
MDA-MB-231 breast = system: MDA-MB-231 breast
SK-MEL-5 melanoma = system: SK-MEL-5 melanoma
U251 CNS = system: U251 CNS
MOLT-4 leukemia = system: MOLT-4 leukemia
OVCAR-8 ovarian = system: OVCAR-8 ovarian
A498 renal = system: A498 renal
RPMI-8226 leukemia = system: RPMI-8226 leukemia
CCRF-CEM leukemia = system: CCRF-CEM leukemia
K-562 leukemia = system: K-562 leukemia
SW-620 colon = system: SW-620 colon
SK-MEL-2 melanoma = system: SK-MEL-2 melanoma
MCF7 breast = system: MCF7 breast
NCI/ADR-RES ovarian = system: NCI/ADR-RES ovarian
MDA-MB-435 = system: MDA-MB-435
NCI-H460 lung = system: NCI-H460 lung
MALME-3M melanoma = system: MALME-3M melanoma
UACC-62 melanoma = system: UACC-62 melanoma
HCC-2998 colon = system: HCC-2998 colon
NCI-H226 lung = system: NCI-H226 lung
DU-145 prostate = system: DU-145 prostate
T-47D breast = system: T-47D breast
KM12 colon = system: KM12 colon
SF-268 CNS = system: SF-268 CNS
TK-10 renal = system: TK-10 renal
SNB-19 CNS = system: SNB-19 CNS
SK-MEL-28 melanoma = system: SK-MEL-28 melanoma
ACHN renal = system: ACHN renal
OVCAR-4 ovarian = system: OVCAR-4 ovarian
OVCAR-5 ovarian = system: OVCAR-5 ovarian
HCT-116 colon = system: HCT-116 colon
IGROV1 ovarian = system: IGROV1 ovarian
SN12C renal = system: SN12C renal
CAKI-1 renal = system: CAKI-1 renal
SR leukemia = system: SR leukemia
HL-60(TB) leukemia = system: HL-60(TB) leukemia
786-0 renal = system: 786-0 renal
UACC-257 melanoma = system: UACC-257 melanoma
SF-295 CNS = system: SF-295 CNS
SK-OV-3 ovarian = system: SK-OV-3 ovarian
NCI-H23 lung = system: NCI-H23 lung
A549 NSCLC = system: A549 NSCLC
SF-539 CNS = system: SF-539 CNS
LOX IMVI melanoma = system: LOX IMVI melanoma
COLO 205 colon = system: COLO 205 colon
RXF 393 renal = system: RXF 393 renal
BT-549 breast = system: BT-549 breast
UO-31 renal = system: UO-31 renal
HOP-62 NSCLC = system: HOP-62 NSCLC
NCI-H522 lung = system: NCI-H522 lung
SNB-75 CNS = system: SNB-75 CNS

O=c1[nH]nc(-c2ccc(F)cc2)cc1-c1ccccc1
> 100 µM: TGI (HS 578T breast) | TGI (M14 melanoma) | TGI (EKVX NSCLC) | TGI (PC-3 prostate) | TGI (HOP-92 NSCLC) | TGI (HT29 colon) | TGI (OVCAR-3 ovarian) | TGI (HCT-15 colon) | TGI (MDA-MB-231 breast) | TGI (SK-MEL-5 melanoma) | TGI (U251 CNS) | TGI (MOLT-4 leukemia) | TGI (OVCAR-8 ovarian) | TGI (A498 renal) | TGI (RPMI-8226 leukemia) | TGI (CCRF-CEM leukemia) | TGI (K-562 leukemia) | TGI (SW-620 colon) | TGI (SK-MEL-2 melanoma) | TGI (MCF7 breast) | TGI (NCI/ADR-RES ovarian) | TGI (MDA-MB-435) | TGI (NCI-H460 lung) | TGI (MALME-3M melanoma) | TGI (UACC-62 melanoma) | TGI (HCC-2998 colon) | TGI (NCI-H226 lung) | TGI (DU-145 prostate) | TGI (T-47D breast) | TGI (KM12 colon) | TGI (SF-268 CNS) | TGI (TK-10 renal) | TGI (SNB-19 CNS) | TGI (SK-MEL-28 melanoma) | TGI (ACHN renal) | TGI (OVCAR-4 ovarian) | TGI (OVCAR-5 ovarian) | TGI (HCT-116 colon) | TGI (IGROV1 ovarian) | TGI (SN12C renal) | TGI (CAKI-1 renal) | TGI (SR leukemia) | TGI (HL-60(TB) leukemia) | TGI (786-0 renal) | TGI (UACC-257 melanoma) | TGI (SF-295 CNS) | TGI (SK-OV-3 ovarian) | TGI (NCI-H23 lung) | TGI (A549 NSCLC) | TGI (SF-539 CNS) | TGI (LOX IMVI melanoma) | TGI (COLO 205 colon) | TGI (RXF 393 renal)

CCOc1ccc(C(C)=O)cc1NC(=O)c1cccc(-c2nnn(CC)n2)c1
active: GI50 (M14 melanoma) 0.396 µM | GI50 (HOP-92 NSCLC) 0.418 µM | GI50 (HT29 colon) 0.325 µM | GI50 (OVCAR-3 ovarian) 0.377 µM | GI50 (HCT-15 colon) 0.419 µM | GI50 (MCF7 breast) 0.333 µM | GI50 (MDA-MB-435) 0.308 µM | GI50 (NCI-H460 lung) 0.423 µM | GI50 (HOP-62 NSCLC) 0.39 µM | GI50 (HCT-116 colon) 0.419 µM | GI50 (SR leukemia) 0.401 µM | GI50 (NCI-H522 lung) 0.147 µM | GI50 (SNB-75 CNS) 0.209 µM | GI50 (SF-295 CNS) 0.306 µM | GI50 (SF-539 CNS) 0.346 µM | GI50 (COLO 205 colon) 0.395 µM
16.7 µM: TGI (U251 CNS)
74.2 µM: TGI (786-0 renal)
> 100 µM: TGI (HS 578T breast) | TGI (M14 melanoma) | TGI (EKVX NSCLC) | TGI (PC-3 prostate) | TGI (HT29 colon) | TGI (HCT-15 colon) | TGI (MOLT-4 leukemia) | TGI (OVCAR-8 ovarian) | TGI (RPMI-8226 leukemia) | TGI (CCRF-CEM leukemia) | TGI (K-562 leukemia) | TGI (SW-620 colon) | TGI (MCF7 breast) | TGI (BT-549 breast) | TGI (NCI-H460 lung) | TGI (UO-31 renal) | TGI (HCC-2998 colon) | TGI (NCI-H226 lung) | TGI (DU-145 prostate) | TGI (SF-268 CNS) | TGI (SK-MEL-28 melanoma) | TGI (OVCAR-4 ovarian) | TGI (OVCAR-5 ovarian) | TGI (HCT-116 colon) | TGI (IGROV1 ovarian) | TGI (SN12C renal) | TGI (CAKI-1 renal) | TGI (SR leukemia) | TGI (A549 NSCLC)
16.5 µM: TGI (SK-MEL-5 melanoma)
19 µM: TGI (NCI-H23 lung)
12.7 µM: TGI (SNB-75 CNS)
49.4 µM: TGI (HOP-92 NSCLC)
1.93 µM: TGI (COLO 205 colon)
50.3 µM: TGI (TK-10 renal)
11.6 µM: TGI (RXF 393 renal)
63.9 µM: TGI (MALME-3M melanoma)
76.6 µM: TGI (SNB-19 CNS)
58.5 µM: TGI (MDA-MB-231 breast)
3.54 µM: TGI (SF-539 CNS)
70.3 µM: TGI (ACHN renal)
70.2 µM: TGI (LOX IMVI melanoma)
5.74 µM: TGI (SF-295 CNS)
18.1 µM: TGI (HOP-62 NSCLC)
24.8 µM: TGI (SK-OV-3 ovarian)
2.34 µM: TGI (MDA-MB-435)
5.89 µM: TGI (OVCAR-3 ovarian)
23.4 µM: TGI (UACC-62 melanoma)
13.3 µM: TGI (NCI/ADR-RES ovarian)
24 µM: TGI (A498 renal) | TGI (SK-MEL-2 melanoma)
0.971 µM: TGI (NCI-H522 lung)
inactive: GI50 (HS 578T breast) 0.996 µM | GI50 (EKVX NSCLC) 0.83 µM | GI50 (PC-3 prostate) 0.481 µM | GI50 (MDA-MB-231 breast) 1.62 µM | GI50 (SK-MEL-5 melanoma) 0.465 µM | GI50 (U251 CNS) 0.458 µM | GI50 (MOLT-4 leukemia) 0.682 µM | GI50 (OVCAR-8 ovarian) 1.29 µM | GI50 (A498 renal) 0.803 µM | GI50 (RPMI-8226 leukemia) 1.22 µM | GI50 (CCRF-CEM leukemia) 0.937 µM | GI50 (K-562 leukemia) 0.454 µM | GI50 (SW-620 colon) 0.492 µM | GI50 (SK-MEL-2 melanoma) 0.44 µM | GI50 (NCI/ADR-RES ovarian) 0.511 µM | GI50 (BT-549 breast) 0.961 µM | GI50 (MALME-3M melanoma) 11.4 µM | GI50 (UACC-62 melanoma) 0.615 µM | GI50 (UO-31 renal) 1.94 µM | GI50 (HCC-2998 colon) 1.71 µM | GI50 (NCI-H226 lung) 11.2 µM | GI50 (DU-145 prostate) 1.07 µM | GI50 (SF-268 CNS) 0.901 µM | GI50 (TK-10 renal) 14.3 µM | GI50 (SNB-19 CNS) 1.29 µM | GI50 (SK-MEL-28 melanoma) 4.75 µM | GI50 (ACHN renal) 0.748 µM | GI50 (OVCAR-4 ovarian) 4.96 µM | GI50 (OVCAR-5 ovarian) 9.34 µM | GI50 (IGROV1 ovarian) 5.7 µM | GI50 (SN12C renal) 5.8 µM | GI50 (CAKI-1 renal) 0.939 µM | GI50 (786-0 renal) 6.25 µM | GI50 (SK-OV-3 ovarian) 0.689 µM | GI50 (NCI-H23 lung) 0.646 µM | GI50 (A549 NSCLC) 0.892 µM | GI50 (LOX IMVI melanoma) 0.59 µM | GI50 (RXF 393 renal) 0.61 µM

Source: PubChem BioAssay (NCI)
